Source: the supplement of paper PMC6315032

How the values were obtained:
Experiment in all cases: apparent dissociation constant (pKDapp, Kinobeads competition, Cheng-Prusoff corrected) (-log10 M); higher = tighter binding
Settings in all cases: affinity matrix / lysate: Kinobeads, mixed HEK293/K-562/placenta lysate
AXL = AXL (UniProt P30530)
BMP2K = BMP2K (UniProt Q9NSY1)
BMPR2 = BMPR2 (UniProt Q13873)
BRAF = BRAF (UniProt P15056)
BRSK2 = BRSK2 (UniProt Q8IWQ3)
CABC1 = CABC1 (UniProt Q8NI60)
CDC2 = CDC2 (UniProt P06493)
CDK10 = CDK10 (UniProt Q15131)
CDKL5 = CDKL5 (UniProt O76039)
CSNK1E = CSNK1E (UniProt P49674)
EPHA2 = EPHA2 (UniProt P29317)
EPHB2 = EPHB2 (UniProt P29323)
ERBB4 = ERBB4 (UniProt Q15303)
FRK = FRK (UniProt P42685)
IRAK3 = IRAK3 (UniProt Q9Y616)
JAK2 = JAK2 (UniProt O60674)
KIAA0999 = KIAA0999 (UniProt Q9Y2K2)
KIT = KIT (UniProt P10721)
MAP4K2 = MAP4K2 (UniProt Q12851)
MAPK1 = MAPK1 (UniProt P28482)
MAPKAPK3 = MAPKAPK3 (UniProt Q16644)
NEK6 = NEK6 (UniProt Q9HC98)
NEK7 = NEK7 (UniProt Q8TDX7)
PCTK3 = PCTK3 (UniProt Q07002)
PFTK1 = PFTK1 (UniProt O94921)
PIM1 = PIM1 (UniProt P11309)
PKN2 = PKN2 (UniProt Q16513)
PRKCA = PRKCA (UniProt P17252)
RPS6KA6 = RPS6KA6 (UniProt Q9UK32)
SIK2 = SIK2 (UniProt Q9H0K1)
SNRK = SNRK (UniProt Q9NRH2)
STK17B = STK17B (UniProt O94768)
STK38L = STK38L (UniProt Q9Y2H1)
STK39 = STK39 (UniProt Q9UEW8)

| apparent dissociation constant (-log10 M) (AXL) | apparent dissociation constant (-log10 M) (BMP2K) | apparent dissociation constant (-log10 M) (BMPR2) | apparent dissociation constant (-log10 M) (BRAF) | apparent dissociation constant (-log10 M) (BRSK2) | apparent dissociation constant (-log10 M) (CABC1) | apparent dissociation constant (-log10 M) (CDC2) | apparent dissociation constant (-log10 M) (CDK10) | apparent dissociation constant (-log10 M) (CDKL5) | apparent dissociation constant (-log10 M) (CSNK1E) | apparent dissociation constant (-log10 M) (EPHA2) | apparent dissociation constant (-log10 M) (EPHB2) | apparent dissociation constant (-log10 M) (ERBB4) | apparent dissociation constant (-log10 M) (FRK) | apparent dissociation constant (-log10 M) (IRAK3) | apparent dissociation constant (-log10 M) (JAK2) | apparent dissociation constant (-log10 M) (KIAA0999) | apparent dissociation constant (-log10 M) (KIT) | apparent dissociation constant (-log10 M) (MAP4K2) | apparent dissociation constant (-log10 M) (MAPK1) | apparent dissociation constant (-log10 M) (MAPKAPK3) | apparent dissociation constant (-log10 M) (NEK6) | apparent dissociation constant (-log10 M) (NEK7) | apparent dissociation constant (-log10 M) (PCTK3) | apparent dissociation constant (-log10 M) (PFTK1) | apparent dissociation constant (-log10 M) (PIM1) | apparent dissociation constant (-log10 M) (PKN2) | apparent dissociation constant (-log10 M) (PRKCA) | apparent dissociation constant (-log10 M) (RPS6KA6) | apparent dissociation constant (-log10 M) (SIK2) | apparent dissociation constant (-log10 M) (SNRK) | apparent dissociation constant (-log10 M) (STK17B) | apparent dissociation constant (-log10 M) (STK38L) | apparent dissociation constant (-log10 M) (STK39) | SMILES |
| --- | --- | --- | --- | --- | --- | --- | --- | --- | --- | --- | --- | --- | --- | --- | --- | --- | --- | --- | --- | --- | --- | --- | --- | --- | --- | --- | --- | --- | --- | --- | --- | --- | --- | --- |
| < 6 | < 6 | < 6 | < 6 | < 6 | < 6 | < 6 | < 6 | < 6 | < 6 | < 6 | < 6 | < 6 | < 6 | < 6 | < 6 | < 6 | < 6 | < 6 | < 6 | < 6 | < 6 | < 6 | < 6 | < 6 | < 6 | < 6 | < 6 | < 6 | < 6 | < 6 | < 6 | < 6 | < 6 | CCNC(=O)Nc1ccc(-c2nc(N3CCOC[C@@H]3C)c3c(n2)C(C)(C)S(=O)(=O)C3)cc1 [CZ415] |
| < 6 | < 6 | < 6 | < 6 | < 6 | < 6 | < 6 | < 6 | < 6 | < 6 | < 6 | < 6 | < 6 | < 6 | < 6 | < 6 | < 6 | < 6 | < 6 | < 6 | < 6 | < 6 | < 6 | < 6 | < 6 | < 6 | < 6 | < 6 | < 6 | < 6 | < 6 | < 6 | < 6 | < 6 | COc1ccc(-c2ccc3c(N4CCOC[C@@H]4C)nc(N4CCOC[C@@H]4C)nc3n2)cc1CO [AZD8055] |
